Laboratory results reported in patent publication US20070287699A1, “ANTIVIRAL AGENTS” (ViroBay, Inc., priority 2006, published 2007).

System: HCV replicon RNA replication in human Huh7 hepatoma cells
Assay: HCV replicon assay (activity levels from either or both of HCV replicon assay 1, Huh7/Clone A RT-qPCR, and assay 2, Huh7 ET luc-ubi-neo/ET)
Type: cell-based, Hepatitis C virus (HCV)
Details: Hepatitis C virus, Huh-7, either or both HCV replicon assays: Huh7/Clone A, 48 hours, 72 hours, Luc activity or RT-PCR, read-out: inhibit HCV replication at IC50 levels or estimated IC50 levels
Summary of the method: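 Huh7/Clone A subgenomic replicon cells treated 48 h at 37° C. with 7 serial dilutions in triplicate (0.5% DMSO final). Replicon RNA measured by TaqMan RT-qPCR on the neo gene, normalized to RiboGreen total RNA; untreated cells set as 100% for IC50.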

Row | Compound | IC50 [nM]
1 | CN(CC(N)=O)c1cc2c(cc1F)c(=O)c(-c1noc(Cc3ccccc3)n1)cn2Cc1ccc(C(F)(F)F)cc1 [Compound 97, 2-{[3-(5-benzyl-[1,2,4]oxadiazol-3-yl)-6-fluoro-4-oxo-1-(4-trifluoromethyl-benzyl)-1,4-dihydro-quinolin-7-yl]-methyl-amino}-acetamide] | > 10000
2 | CN1CCN(c2cc3c(cc2F)c(=O)c(-c2noc(C(C)(C)c4ccccc4)n2)cn3Cc2cccc(C(F)(F)F)c2)CC1 [Compound 98, 6-fluoro-3-[5-(1-methyl-1-phenyl-ethyl)-[1,2,4]oxadiazol-3-yl]-7-(4-methyl-piperazin-1-yl)-1-(3-trifluoromethyl-benzyl)-1H-quinolin-4-one] | < 500
3 | NC(=O)CCCC(c1ccccc1)c1nc(-c2cn(Cc3ccc(C(F)(F)F)cc3F)c3ccccc3c2=O)no1 (centres unmarked) [Compound 99, 5-{3-[1-(2-fluoro-4-trifluoromethyl-benzyl)-4-oxo-1,4-dihydro-quinolin-3-yl]-[1,2,4]oxadiazol-5-yl}-5-phenyl-pentanoic acid amide] | > 10000
4 | CC(C)(c1ccccc1)c1nc(-c2cn(Cc3ccc(C(F)(F)F)cc3)c3cc(N4CCS(=O)(=O)CC4)c(F)cc3c2=O)no1 [Compound 100, 7-(1,1-dioxo-thiomorpholin-4-yl)-6-fluoro-3-[5-(1-methyl-1-phenyl-ethyl)-[1,2,4]oxadiazol-3-yl]-1-(4-trifluoromethyl-benzyl)-1H-quinolin-4-one] | < 500
5 | CC(C)(c1ccccc1)c1nc(-c2cn(Cc3ccc(C(F)(F)F)cc3)c3cc(N4CCSCC4)c(F)cc3c2=O)no1 [Compound 101, 6-fluoro-3-[5-(1-methyl-1-phenyl-ethyl)-[1,2,4]oxadiazol-3-yl]-7-thiomorpholin-4-yl-1-(4-trifluoromethyl-benzyl)-1H-quinolin-4-one] | < 500
6 | CC(C)(C)c1ccc(Cn2cc(-c3noc(Cc4ccccc4)n3)c(=O)c3cc(F)c(N4CCCNCC4)cc32)cc1 [Compound 102, 3-(5-benzyl-[1,2,4]oxadiazol-3-yl)-1-(4-tert-butyl-benzyl)-7-[1,4]diazepan-1-yl-6-fluoro-1H-quinolin-4-one] | < 2000
7 | CN1CCCN(c2nc3c(cc2F)c(=O)c(-c2noc(C(C)(C)c4ccccc4)n2)cn3Cc2ccc(C(F)(F)F)cc2)CC1 [Compound 103, 6-fluoro-7-(4-methyl-[1,4]diazepan-1-yl)-3-[5-(1-methyl-1-phenyl-ethyl)-[1,2,4]oxadiazol-3-yl]-1-(4-trifluoromethyl-benzyl)-1H-[1,8]naphthyridin-4-one] | < 2000
8 | O=C(O)c1cn(-c2cc3c(cc2F)c(=O)c(-c2noc(Cc4ccccc4)n2)cn3Cc2ccc(C(F)(F)F)cc2F)cn1 [Compound 104, 1-(3-(5-benzyl-1,2,4-oxadiazol-3-yl)-6-fluoro-1-(2-fluoro-4-(trifluoromethyl)benzyl)-4-oxo-1,4-dihydroquinolin-7-yl)-1H-imidazole-4-carboxylic acid] | > 10000
9 | NC(=O)Cc1ccc2c(c1)c(=O)c(-c1noc(Cc3ccccc3)n1)cn2Cc1ccc(C(F)(F)F)cc1F [Compound 105, 2-(3-(5-benzyl-1,2,4-oxadiazol-3-yl)-1-(2-fluoro-4-(trifluoromethyl)benzyl)-4-oxo-1,4-dihydroquinolin-6-yl)acetamide] | > 10000
10 | CC(c1ccc(C(F)(F)F)cc1)n1cc(-c2noc(C(C)(C)c3ccc(F)cc3)n2)c(=O)c2cc(F)c(N3CCOCC3)cc21 (centres unmarked) [Compound 109, 6-fluoro-3-(5-(2-(4-fluorophenyl)propan-2-yl)-1,2,4-oxadiazol-3-yl)-7-morpholino-1-(1-(4-(trifluoromethyl)phenyl)ethyl)quinolin-4(1H)-one] | < 2000
11 | CC(C)(c1ccc(F)cc1)c1nc(-c2cn(Cc3ccc(C(F)(F)F)cc3)c3cc(N4CCNC(=O)C4)c(F)cc3c2=O)no1 [Compound 125, 6-fluoro-3-(5-(2-(4-fluorophenyl)propan-2-yl)-1,2,4-oxadiazol-3-yl)-7-(3-oxopiperazin-1-yl)-1-(4-(trifluoromethyl)benzyl)quinolin-4(1H)-one] | < 500
12 | CC(C)(c1ccccc1)c1nc(-c2cn(Cc3ccc(C(F)(F)F)cc3)c3cc(N4CCNC(=O)C4)c(F)cc3c2=O)no1 [Compound 126, 6-fluoro-7-(3-oxopiperazin-1-yl)-3-(5-(2-phenylpropan-2-yl)-1,2,4-oxadiazol-3-yl)-1-(4-(trifluoromethyl)benzyl)quinolin-4(1H)-one] | < 500
13 | CC(C)(c1ccc(Cl)cc1)c1nc(-c2cn(Cc3ccc(C(F)(F)F)cc3)c3cc(N4CCS(=O)(=O)CC4)c(F)cc3c2=O)no1 [Compound 127, 3-(5-(2-(4-chlorophenyl)propan-2-yl)-1,2,4-oxadiazol-3-yl)-6-fluoro-7-dioxo-thiomorpholino-1-(4-(trifluoromethyl)benzyl)quinolin-4(1H)-one] | < 10000
14 | CC(C)(c1ccccc1)c1nc(-c2cn(Cc3ccc(C(F)(F)F)cc3)c3cc(N4CC[S+]([O-])CC4)c(F)cc3c2=O)no1 [Compound 129] | < 500
15 | COc1ccc(Cn2cc(-c3noc(C(C)(C)c4ccc(F)cc4)n3)c(=O)c3cc(F)c(N4CCOCC4)cc32)cc1 [Compound 130, 6-fluoro-3-(5-(2-(4-fluorophenyl)propan-2-yl)-1,2,4-oxadiazol-3-yl)-1-(4-methoxybenzyl)-7-morpholinoquinolin-4(1H)-one] | < 2000
16 | C[C@@H]1CN(c2cc3c(cc2F)c(=O)c(-c2noc(C(C)(C)c4ccccc4)n2)cn3Cc2ccc(C(F)(F)F)cc2)C[C@H](C)N1 [Compound 131, 7-((3S,5R)-3,5-dimethylpiperazin-1-yl)-6-fluoro-3-(5-(2-phenylpropan-2-yl)-1,2,4-oxadiazol-3-yl)-1-(4-(trifluoromethyl)benzyl)quinolin-4(1H)-one] | < 500
17 | CC(C)(c1ccc(F)cc1)c1nc(-c2cn(Cc3ccc(C(F)(F)F)cc3)c3cc(N4CCSCC4)c(F)cc3c2=O)no1 [Compound 132, 6-fluoro-3-(5-(2-(4-fluorophenyl)propan-2-yl)-1,2,4-oxadiazol-3-yl)-7-thiomorpholino-1-(4-(trifluoromethyl)benzyl)quinolin-4(1H)-one] | < 500
18 | C[C@@H]1CN(c2cc3c(cc2F)c(=O)c(-c2noc(C(C)(C)c4ccc(F)cc4)n2)cn3Cc2ccc(C(F)(F)F)cc2)C[C@H](C)N1 [Compound 133, 7-((3S,5R)-3,5-dimethylpiperazin-1-yl)-6-fluoro-3-(5-(2-(4-fluorophenyl)propan-2-yl)-1,2,4-oxadiazol-3-yl)-1-(4-(trifluoromethyl)benzyl)quinolin-4(1H)-one] | < 500
19 | CC1CN(c2cc3c(cc2F)c(=O)c(-c2noc(C(C)(C)c4ccccc4)n2)cn3Cc2ccc(C(F)(F)F)cc2)CC(C)O1 (centres unmarked) [Compound 138, 7-(2,6-dimethylmorpholino)-6-fluoro-3-(5-(2-phenylpropan-2-yl)-1,2,4-oxadiazol-3-yl)-1-(4-(trifluoromethyl)benzyl)quinolin-4(1H)-one] | < 2000
20 | C[C@@H](c1ccccc1)n1cc(-c2noc(C(C)(C)c3ccccc3)n2)c(=O)c2cc(F)c(N3CCOCC3)cc21 [Compound 143, (S)-6-fluoro-7-morpholino-1-(1-phenylethyl)-3-(5-(2-phenylpropan-2-yl)-1,2,4-oxadiazol-3-yl)quinolin-4(1H)-one] | > 10000
